Experimental data as given in PubChem BioAssay (NCI).
Several values for one entry are separate records, joined by “and”; a condition that tells them apart may be missing. Identical values can stand only once.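 Growth conditions: 96-well plates. Treatment: test compound, 48 hours, 5 concentrations. Analysis: linear interpolation between bracketing concentrations; unreached endpoints set to highest concentration. GI50 is the concentration that inhibits growth by half. Definition used: TGI = concentration required for complete inhibition of growth.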

What was measured:
Assay in all cases: NCI tumour cell line growth inhibition, 48 h
DU-145 prostate = tested on: DU-145 prostate
EKVX NSCLC = tested on: EKVX NSCLC
HCC-2998 colon = tested on: HCC-2998 colon
HCT-116 colon = tested on: HCT-116 colon
MOLT-4 leukemia = tested on: MOLT-4 leukemia
NCI-H226 lung = tested on: NCI-H226 lung
OVCAR-4 ovarian = tested on: OVCAR-4 ovarian
SK-MEL-2 melanoma = tested on: SK-MEL-2 melanoma
SK-MEL-5 melanoma = tested on: SK-MEL-5 melanoma
SR leukemia = tested on: SR leukemia

Row | SMILES | GI50 (DU-145 prostate) | TGI (DU-145 prostate) [µM] | GI50 (EKVX NSCLC) | TGI (EKVX NSCLC) [µM] | TGI (HCC-2998 colon) [µM] | GI50 (HCT-116 colon) | TGI (HCT-116 colon) [µM] | GI50 (MOLT-4 leukemia) | TGI (MOLT-4 leukemia) [µM] | GI50 (NCI-H226 lung) | TGI (NCI-H226 lung) [µM] | GI50 (OVCAR-4 ovarian) | TGI (OVCAR-4 ovarian) [µM] | GI50 (SK-MEL-2 melanoma) | GI50 (SK-MEL-5 melanoma) | TGI (SK-MEL-5 melanoma) [µM] | GI50 (SR leukemia) [µM] | TGI (SR leukemia) [µM] | GI50 (HCC-2998 colon) [µM] | TGI (SK-MEL-2 melanoma) [µM]
1 | O=C(NOC[C@H](O)CO)c1ccc(F)c(F)c1Nc1ccc(I)cc1F | 11.3 µM and 1.67 µM | > 100 | 0.101 µM and 0.0891 µM | > 100 | 2.24 | 0.0265 µM and 0.0182 µM | > 100 | 57.9 µM and > 10 µM | > 100 | 0.717 µM and 1.43 µM | > 100 | 8.76 µM and > 10 µM | > 100 | < 0.01 µM and 0.00337 µM | 4.17 µM and > 10 µM | > 100 | > 10 | > 100 |  | 
2 | OCc1ccc(N2CCc3cccc(F)c3C2)cc1Cl | 4.5 µM | 30.3 |  |  | 11 | < 0.0104 µM | 14.6 | 23 µM | 71 | 0.0191 µM | 0.0936 | 0.0279 µM | 0.201 |  | 14.9 µM | 35.4 | 19.3 | 58.8 | 1.96 | 30.5
3 | O=S(=O)(NC1=NCCN1C(=S)SN1CCn2c1nsc2=S)c1cccc2ccccc12 | 19.3 µM | 49.2 | 25.8 µM | > 100 | 53.2 | 14.8 µM | 37.2 | 16.5 µM | 60.3 | 30.6 µM | > 100 | 29.2 µM | > 100 | 17.5 µM | 19.1 µM | 54.4 | 10.2 | 45.6 | 21.4 | 44.1
4 | CCOC(=O)C(Cc1c[nH]c2c(N(CCO)CCO)cccc12)(NC(C)=O)C(=O)OCC | 499 µM | > 1000 | > 1000 µM | > 1000 | > 1000 | 412 µM | > 1000 |  |  | 439 µM | > 1000 | 196 µM | > 1000 |  | 323 µM | > 1000 | 144 | 890 | > 1000 | 
5 | O=C(/C=C/c1ccccc1)C(Br)C(Br)c1ccccc1 (stereo not given) | 1.64 µM | 3.24 |  |  | 3.63 | 0.2 µM | 0.43 | 0.602 µM | 3 |  |  | 1.73 µM | 3.67 | 1.82 µM |  |  | 0.455 | 2.59 | 1.9 | 3.6
6 | COc1ccc(C2OC(=O)c3ccc4ccccc4c32)c(C)c1 (stereo not given) |  | > 100 |  | > 87.8 | 12.3 |  | > 45.7 |  | > 39.8 |  | 56.9 |  | > 100 |  |  | 17.6 |  | > 89.7 |  | 18.4
7 | CCOC(=O)c1cc2cc3c4c(c2oc1=O)CCCN4CCC3 |  | > 100 |  | 80 | > 100 |  | 79 |  | 62.9 |  | 51.3 |  | > 100 |  |  | 26.8 |  | > 100 |  | > 100
8 | O=C1CC2C(=O)c3ccccc3CC2c2ccccc21 (stereo not given) |  | > 100 |  | > 100 |  |  | > 100 |  | 69.3 |  | > 100 |  | > 100 |  |  |  |  | 81.6 |  | > 100
9 | COc1cc2ncn(-c3cc(OCc4ccccc4C(F)(F)F)c(C(=O)N(C)C)s3)c2cc1OC | > 25 µM | > 25 | > 25 µM | > 25 | > 25 | > 25 µM | > 25 | > 25 µM | > 25 | 5.85 µM | > 12.5 | 18.1 µM | > 25 | > 20.2 µM | 6.7 µM | > 13.1 | > 25 | > 25 | > 25 | > 25
10 | O=C(O)c1ccc(CI)cc1 |  | 35.9 |  | 36.4 | 35.6 |  | 28.1 |  | 40.7 |  | 44.1 |  | 27.4 |  |  | 31.3 |  | 59.1 |  | 48.7
11 | Cn1c(C(=O)c2ccncc2)cc2ccccc21 | > 100 µM | > 100 | 78.1 µM | > 100 | > 100 | 72 µM | > 100 | 54.4 µM | > 100 | > 100 µM | > 100 | > 100 µM | > 100 | > 100 µM | 37.5 µM | > 100 | 63.1 | > 100 | > 100 | > 100
12 | O=[N+]([O-])c1cc(Cl)c2[nH]c3c(Cl)cc([N+](=O)[O-])cc3c2c1 | 0.508 µM | > 100 | 0.244 µM | > 27.1 | > 100 | 0.263 µM | 7.12 | 0.329 µM | > 100 | 0.393 µM | > 100 | 0.263 µM | > 100 | 0.347 µM | 0.129 µM | 0.651 | 0.32 | > 100 | 0.331 | 2.19
13 | Nc1nonc1-c1nc2cnccc2n1C1CC1 | 10.6 µM | > 25 | 1.63 µM | > 25 | > 25 | 5.62 µM | > 25 | 12.1 µM | > 25 | 0.739 µM | > 14.6 | 7.4 µM | > 25 | 5.35 µM | 5.81 µM | > 19 | 3.81 | 15 | 12.4 | > 21.7
14 | CCc1ccc(NC(=O)NC(=O)c2ccccc2[N+](=O)[O-])cc1Oc1ncc(Cl)cn1 |  | > 100 |  | > 100 | 0.0695 |  | 3.62 |  | > 100 |  | 0.0796 |  | > 100 |  |  | 0.0327 |  | > 100 |  | 
15 | COc1cc2nc(SCc3cc(OC)c(OC)c(OC)c3)n(Cc3ccccc3)c(=O)c2cc1OC | 5.38 µM | > 100 |  |  | > 100 | 2.42 µM | > 100 | 3.81 µM | > 100 | 6.85 µM | > 100 | 5.5 µM | > 100 | 2.92 µM | 0.454 µM | 2.63 | 0.533 | > 22.2 | 3.71 | 16.8
16 | Cc1[nH]nc(C(F)(F)F)c1N=NN(C)C |  | 24.2 |  | 11.5 | 31.5 |  | 4.99 |  | 5.02 |  | 6.36 |  |  |  |  | > 100 |  | 18.8 |  | 35.5
17 | COC(=O)C1C(O)CCC2CN3CCc4c([nH]c5ccccc45)C3CC21 (stereo not given) |  | > 100 |  | > 100 | > 100 |  | > 100 | > 100 µM and 14.4 µM | > 100 |  | > 100 | > 100 µM | > 100 |  |  | > 100 |  |  |  | > 100
18 | C=CCn1c(C)nc2ccc(Nc3nc(Nc4ccc(F)cc4)nc4ccccc34)cc21 | 8.63 µM | 22.8 |  |  | 23.5 | 2.41 µM | 7.67 | 1.77 µM | 6.27 |  |  | 2.06 µM | 5.81 | 3.16 µM | 1.36 µM | 2.64 | 2.26 | 5.93 | 8.87 | 11.4
19 | COc1ccc(/C=C/C(=O)/C=C/c2cc3ccccc3[nH]c2=O)cc1 | 3.36 µM | 10.3 |  |  | 4.13 | 1.55 µM | 3.24 | 3.2 µM | 9.24 | 4.42 µM | 19.7 | 9.73 µM | > 100 |  | 11 µM | 25.1 | 2.88 | 8.65 | 2.19 | 
20 | COc1cc(C2SCCCCCCCCCCSC(c3ccc(O)c(OC)c3)SCCCCCCCCCCS2)ccc1O (stereo not given) |  | > 100 |  | > 100 |  |  | > 100 |  | > 100 |  | > 100 |  | > 100 |  |  | > 100 |  | > 100 |  | > 100
21 | CCC(O)c1ccc(Br)cc1NC(=O)c1cccc(Cl)c1 (stereo not given) | 34.5 µM | > 100 |  |  | 45.4 | 14.2 µM | 46.6 | 15.9 µM | 45.5 | 21.5 µM | 64.6 | 30 µM | > 100 | 28.1 µM | 14.5 µM | 28.2 | 24 | 70.5 | 20.5 | 82.4
22 | CC[n+]1oc(C(=O)c2ccc(Cl)cc2)c(-c2ccccc2)c1-c1ccccc1.[Cl][Fe]([Cl])([Cl])[Cl] | 18.9 µM | 75 | 30.4 µM | > 100 | > 100 |  |  | 47.2 µM | > 100 | 75.2 µM | > 100 | 65.7 µM | > 100 | 30.8 µM | 19.5 µM | 45.8 | 33 | > 100 | 60.8 | 85.9
23 | CCCCCCCCCCCCCCCCCC1=NC(C)(C)CN1CC(C)O (stereo not given) | 3.66 µM | 13.1 | 13.7 µM | 30.1 | 18.9 | 2.43 µM | 5.86 |  |  | 18.8 µM | 38.5 | 12.5 µM | 28.4 | 15.6 µM | 17.4 µM | 32 | 2.75 | > 100 | 6.01 | 31
